Assay results: patent US11933780B2, “System and method for assessing an effect on cellular units in an organism” (Functional Fluidics Inc., priority 2022, dated 2024)

Tested on: erythrocytes
Experiment: percentage of sickling of erythrocytes over time during deoxygenation by the PCA/PCD system
Format: cell-based
Source text: FIG. 5 is a graph illustrating a percentage of sickled erythrocytes over time for one sample that is exposed to a drug and one that is not.
Referring again to FIG. 3, the method may continue with the step 60 of deoxygenating the supporting medium in the aliquot of sample A and, in certain embodiments, the supporting medium in the aliquot of sample B to induce at least one of a predetermined amount of hypoxia and a predetermined rate of oxygen consumption in each of the supporting mediums. Deoxygenation of the supporting mediums in the aliquots of samples A and B may occur at the same or different times. Deoxygenation may be performed through enzymatic catalysis using enzymatic oxygen scavengers/scrubbers such as glucose oxidase or pyranose oxidase. In a preferred embodiment, deoxygenation is performed through enzymatic catalysis using a reaction substrate comprising protocatechuic acid (PCA) and a reaction enzyme comprising […] (PCD). PCD catalyzes the conversion of PCA and oxygen in the supporting medium in a 1:1 stoichiometry into β-carboxy-cis, cis-muconic acid (CMA). The use of PCA/PCD has a number of advantages relative to other enzymatic catalysis methods and other methods of deoxygenation. […] The use of PCA/PCD can achieve greater levels of hypoxia in the samples relative to some other methods. The use of PCA/PCD can also achieve specific levels of hypoxia as opposed to proceeding to complete hypoxia as in other methods thereby allowing simulation of more specific conditions (e.g., for a particular organ or particular level of hypoxia). Most importantly, the use of PCA/PCD allows accurate control of the rate of oxygen consumption in both the supporting medium and, as a result, the rate of deoxygenation of Hb in embodiments where the cellular unit comprises erythrocytes or extracellular Hb. Conventional methods of deoxygenation assume equilibrium or quasi-equilibrium conditions in which, for example, the rate of Hb deoxygenation occurs […] than the rate of oxygen consumption in the supporting medium. […]

[1] = FIG. 5, curve 76 vs curve 78, PCA/PCD deoxygenation at the same rate of oxygen consumption

CC(C)n1nccc1-c1ncccc1COc1cccc(O)c1C=O [voxelotor]
percentage of sickling of erythrocytes over time (FIG. 5, curve 76 (voxelotor) vs curve 78, same erythrocyte-containing sample deoxygenated by PCA/PCD at the same rate of oxygen consumption): reduction in sickling
delay in sickling [1]: longer delay in sickling
erythrocyte sickling rate [1]: slower erythrocyte sickling rate
